Key:
[1] = tested on: Walker carcinosarcoma 256; assay: Walker carcinosarcoma 256 tumour growth inhibition in rats; assay type: in vivo, Sprague-Dawley rats; parameters: ED50: unit: mg/kg; settings: daily p.o. for 5 days, dose causing 50 percent reduction of tumour size, killed 9th day
From the text: LD50 is the dose that causes a 50 percent lethality of the animals, and ED50 is the dose that causes a 50 percent reduction of tumour size.
The experimental design and the interpretation of the results are in accordance with the standards set by the CCNSC (Cancer Chemotherpy Reports, January 1959 and December 1962).
Walker carcinosarcoma 256.
Experimental animals: Sprague-Dawley rats.
Tumour implant: Tumour pieces with 2-4 mm diameter, sub-
Therapy: Daily p.o. administration for 5 days starting on
the day following implantation.
Termination: The animals are killed on the 9th day.
Evaluation: Weights of tumours of test animals are compared
with those of control animals.

[2] = biological target: T1, rabbit uterus cytosol progesterone receptor (Oryctolagus cuniculus, UniProt P06186); assay: Relative affinity to rabbit uterus cytosol progesterone receptor (3H-progesterone competition); assay type: binding; settings: compared to progesterone; 50% competition with 3H-progesterone; 16-18 hours at 4° C.
T1 construct: One ml portions of the supernatant (rabbit uterus cytosol) were pipetted into small centrifuge tubes of glass; from tissue; host or cells: uterus cytosol (105,000×g supernatant) of female rabbits pretreated with polyestradiol phosphate
T1 sequence (P06186 1-930): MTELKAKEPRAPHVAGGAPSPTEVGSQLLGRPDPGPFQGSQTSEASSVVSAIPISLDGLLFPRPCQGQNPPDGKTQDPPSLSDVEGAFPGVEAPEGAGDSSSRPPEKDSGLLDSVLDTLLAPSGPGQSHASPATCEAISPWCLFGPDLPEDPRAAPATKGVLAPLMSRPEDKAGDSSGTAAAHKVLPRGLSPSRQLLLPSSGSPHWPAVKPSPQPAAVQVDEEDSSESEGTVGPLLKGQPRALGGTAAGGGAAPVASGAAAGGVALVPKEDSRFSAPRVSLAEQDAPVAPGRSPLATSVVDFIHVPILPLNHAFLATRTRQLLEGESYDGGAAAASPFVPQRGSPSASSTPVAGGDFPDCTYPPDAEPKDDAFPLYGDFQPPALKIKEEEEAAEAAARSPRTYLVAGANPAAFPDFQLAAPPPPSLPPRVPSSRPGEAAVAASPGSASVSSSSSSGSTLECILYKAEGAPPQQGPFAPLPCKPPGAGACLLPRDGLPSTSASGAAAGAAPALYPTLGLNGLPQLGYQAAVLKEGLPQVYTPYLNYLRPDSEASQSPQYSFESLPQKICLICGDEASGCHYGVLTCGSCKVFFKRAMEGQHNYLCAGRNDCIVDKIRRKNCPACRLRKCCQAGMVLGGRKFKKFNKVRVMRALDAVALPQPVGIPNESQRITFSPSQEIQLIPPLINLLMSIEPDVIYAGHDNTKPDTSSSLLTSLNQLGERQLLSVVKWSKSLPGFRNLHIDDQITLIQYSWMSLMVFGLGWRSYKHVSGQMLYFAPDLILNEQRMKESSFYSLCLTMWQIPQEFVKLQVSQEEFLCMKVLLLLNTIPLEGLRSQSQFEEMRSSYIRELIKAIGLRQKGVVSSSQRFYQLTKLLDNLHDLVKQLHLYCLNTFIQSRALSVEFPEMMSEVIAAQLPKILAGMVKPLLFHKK
Method: This example illustrates the compound's relative affinity to rabbit uterus cytosol progesterone receptor compared with progesterone. The method used for this purpose is a modification of methods already described by Kontula, K. et al. (Acta Endocrinol. 78 (1975) 574) and Terenius, L. (Steroids 23 (1974) 909) among others.
Female rabbits (3-4 pounds) from Knut Larsen, Uddevalla, Sweden, were injected i.m. with 1 mg Estradurin (polyestradiol phosphate, 1 mg/ml saline, AB Leo, Sweden). After one week, the animals were killed and the uteri were immediately removed, chilled and cut free from connective tissues. All the following operations were performed at 0°-4° C. The uteri were cut into small pieces and washed several times with 3 vol. of buffer at pH 7.4 containing 50 MM TRIS-HCl, 1.5 mM EDTA, 3 mM NaN3, 2 mM dithiothreitol, and 25% glycerol (by vol.). The tissue was homogenized in the same buffer (3 vol.) with four 15-s bursts at rheostat setting 36-37 of an Ultra Turrax (Janke and Kunkel KG, Staufen, The Federal Republic of Germany). The homogenate was centifuged in a Sorvall GLC-2 centrifuge for 15 min at 600×g. The supernatanate was recentrifuged at 105,000×g for 60 min in a Beckman ultracentrifuge model LB-65-B with rotor SW 56.
One ml portions of the supernatant (rabbit uterus cytosol) were pipetted into small centrifuge tubes of glass and were kept at -70° C. until used. The protein content was determined by the method of Lowry (J. Biol. Chem. 193 (1951) 265).
10.0 mg of each compound was dissolved in 10.0 ml 99.5% ethanol. 100 μl of this standard solution was diluted to 5.0 ml ethanol/glycerol 1:1 (v/v). The ethanol was evaporated by blowing air at 40° C. on the solution. The volume was then adjusted to 5.0 ml by adding buffer without glycerol.
The compounds were diluted with glycerol/buffer 1:1 to final concentrations between 10^-8 -10^-5 M in total 300 μl incubation media. 100 μl of each compound and of each dilution were incubated in small centrifuge tubes (2 ml) together with 100 μl (10 pg) ^3 H-progesterone (1,2,6,7-3H-progesterone, 47.8 Ci/mMol, The Radiochemical Centre, Amersham, England) and 100 μl cytosol adjusted with buffer to a final concentration of about […]. The incubations were carried out for 16-18 hours at 4° C.
The separation of bound from free radioactivity was carried out at 0° C. using the dextran coated charcoal technique (DCC). To each incubation tube was added 0.5 ml DCC-suspension (0.05% dextran-70, Pharmacia, Uppsala, Sweden and 0.5% Norit A, Sigma, Saint Louis, Missouri, U.S.A.) The tubes were agitated 2-3 times during 10 minutes whereupon they were centrifuged at 100×g for five minutes. The supernatantes were decanted directly into Scintillation vials (polyethene, Packard) containing 10 ml InstaGel (Packard). The radioactivity was counted in a Philip's liquid scintillation spectrometer Model PW 4510/00 with external standard and automatic quenching correction.
To incubation tubes were added 100 μl cytosol, 100 μl ^3 H-progesterone (10 pg) and 100 μl of different dilutions of non-radioactive progesterone in glycerol/buffer 1:1 ranging from 0-10^4 pg/100 μl. The tubes were incubated parallel with the compounds described above. The radioactivity was calculated by substracting the counted radioactivity in the incubation tubes with the radioactivity counted in incubations tubes in which the cytosol was replaced with buffer (100 μl).
The concentration of non-radioactive progesterone [P]i which competes for 50% of bound radioactive progesterone was calculated from the standard curve constructed [B] i/[B] o=0.5 where [B]i is the bound radioactivity at different concentrations of non-radioactive progesterone and [B]o is the bound radioactivity at progesterone concentration zero.
In the same manner, curves were constructed for each compound X and the concentration for each compound which competes for 50% with bound ^3 H-progesterone ([X]50) was calculated. […]

Structure (SMILES): CC(=O)[C@@]1(OC(=O)COC(=O)c2ccc(C)c(N(CCCl)CCCl)c2)CC[C@H]2[C@@H]3CCC4=CC(=O)CC[C@]4(C)[C@H]3CC[C@@]21C [Compound 3:7, 17α-/3-(N,N-bis(2-chloroethyl)amino)-4-methylbenzoyloxyacetoxy/pregn-4-ene-3,20-dione]
- ED50 [1]: 16
- relative binding affinity (RBA) [2]: 1.8%
